Assays:
[1] = test system: kinome; broad panel of proteases, receptors, and bromodomains; conditions: cited from earlier work
[2] = test system: 14 DIV mouse hippocampal neurons; test: oTau-induced spine loss: drebrin-positive spine density in cultured hippocampal neurons; assay type: cell-based; conditions: oTau 50 nM + inhibitor 24 h vs oTau alone; NVS-PAK1-1 10 nM, NVS-PAK1-C 10 nM, AZ13705339 1 nM, G5555 5 nM
Protocol: (§1) For in vitro study, all animal procedures were conducted in accordance with the National Institutes of Health Guide for the Care and Use of Laboratory Animals using protocols approved by the institutional animal care and use committee at Stanford University. Timed pregnant C57BL/6 mice (Strain code: 027) were purchased from Charles River Laboratories and delivered on embryonic day 15 (E15), after which E16 embryos were used for primary hippocampal cultures. Primary embryonic mouse hippocampal neuron cultures were plated on poly‐D‐lysine‐coated (10 µg/mL) glass cover slips at 40,000 to 50,000 cells per well in 12‐well plates (Corning Life Sciences). Cells were seeded in plating medium DMEM/F12 supplemented with 10% fetal bovine serum and 1 × penicillin/streptomycin (PS) for 2 hours. Medium was then changed to B‐27 Plus Neuronal Culture System (Invitrogen) supplemented with PS, and 2 mM glutamine.
(§2) Immunofluorescence was performed as described previously.[24] Briefly, cultured hippocampal neurons were fixed in 4% formaldehyde for 20 minutes, permeabilized for 6 minutes in 80% ice‐cold methanol, and incubated with primary antibodies at 4°C overnight. Primary antibodies used were rabbit polyclonal MAP2 antibody for labeling dendrites (1:1000, #8707, Cell Signaling) and mouse monoclonal drebrin antibody for labeling dendritic spines (1:300; Cat#ADI‐NBA‐110, Enzo). Secondary antibodies consisted of donkey antirabbit or antimouse conjugated with either FITC or Cy3 (1:400; Jackson ImmunoResearch Laboratories, Inc.).
The cultured hippocampal neurons were imaged using an oil‐based 63x objective on a Leica Stellaris 5 confocal microscope. The cell nucleus was stained with DAPI and imaged at a wavelength of 405 nm (blue channel), the dendrites stained by MAP2 were imaged at 488 nm wavelength (green channel), and the drebrin‐stained spines were imaged at a wavelength of 561 nm (red channel). […] The number of steps for every z‐stack picture of a neuron were determined by the size of the neuron in the z‐plane, to ensure that the entirety of a neuron is captured in the picture. […]
For quantification of drebrin‐positive spines in vitro, the images were analyzed using Imaris 9.3 software. […] After manually tracing the dendrites, the spines along the dendrites were assessed using the automatic “spine detection” function in Imaris. […] The spine density (number of spines/dendrite length) was then calculated for each neuron. All image acquisition and quantification were performed in a blind manner. For in vitro quantification of dendrite degeneration, Neurolucida (MBF Biosciences) in the manual mode was used to measure the total dendritic length, numbers of dendrites, and dendritic complexity for each neuron.

[3] = Body weight during chronic twice daily oral dosing of aged 5xFAD mice; assay type: in vivo; conditions: 8- to 9-month-old 5xFAD, twice daily oral administration, within first 31 days; seen with both NVS-PAK1-1 and vehicle
Protocol: Serial blood was collected from n = 3 per treatment group at 0.5, 1, 2, and 4 hours post dose; with terminal blood and brain collected at 4 hours post dose. A staggered cohort of n = 3 per treatment group were assigned to serial blood collections at 0.5, 1, 2, and 8 hours post dose with terminal blood and brain collected at 4 and 24 hours post dose. Informed by exposure data from the initial PK/PD study, a subsequent chronic PK/PD study was designed to evaluate twice daily treatment of 100 mg/kg (PO) in female and male 5xFAD mice compared to age‐ and sex‐matched vehicle‐treated 5xFAD and vehicle‐treated WT littermate controls (Table S2 in supporting information). Terminal blood and brain was collected at 4 hours after the final dose. […] All in vivo target engagement and PK/PD studies were conducted under blinded conditions for age, genotype, and treatment, and the blind was maintained until after analyses were conducted.
Drug concentrations were prepared immediately before dosing each day. The dose volume was delivered at 10 mL/kg based on each subject's daily weight collected just prior to the morning dose and administered via PO. For the chronic PD study, twice daily dosing (BID) was conducted between 7:00 and 9:00 am each morning and 3:00 to 5:00 pm each evening with the same day's formulation stored at 4°C between dosing intervals.

[4] = test system: dendritic spines, layer V of somatosensory cortex; test: Golgi staining, dendritic spine density in somatosensory cortex of 5xFAD mice; assay type: in vivo
Protocol: Drug concentrations were prepared immediately before dosing each day. […] The right hemisphere was subjected to Golgi staining as described previously[29] to assess dendrite morphology and dendritic spine density. Briefly, frozen mice brains were rapidly immersed in a modified Golgi-Cox staining solution (developed and provided by […] Jing and Francis Lee, Cornell University) for 9 days at room temperature in the dark. The brains were then incubated in 30% sucrose in dH2O at 4°C for 72 hours, with the solution refreshed after the first 12 hours. Next, 150 μm sections were prepared using a vibratome and mounted onto slides coated with 0.3% gelatin. After a brief drying period, slides were dipped three times in 40% sucrose and air dried for 72 hours in the dark. After dH2O washes, sections were developed using a staining solution, rinsed again, dehydrated through a graded ethanol series, cleared in xylene, and cover slipped with DPX mounting medium. Brain sections stained using the Golgi-Cox method were imaged with a Zeiss brightfield microscope equipped with the Neurolucida software (MBF Biosciences). The Neurolucida software was used to acquire neuron pictures, trace neuronal dendrites, and quantify dendritic spine density. […] After a neuron was selected, the 100 × oil immersion objective was used to perform real time dendritic tracing using Neurolucida's live mode. The soma was outlined using the “cell body” option followed by manual tracing of apical and basal dendrites using the respective “dendrite tracing” options. After the tracing was finished, spines were manually marked along the dendrites. A.DAT file was saved for each neuron post completion of dendrite and spine tracing and imported into Neurolucida Explorer, which is used to perform quantitative structural analysis and dendrite length and number of spines data for each neuron is exported. The spine density is calculated by dividing number of spines/dendrite length separately for apical and basal dendrites for each neuron.

[5] = test system: 14 DIV mouse hippocampal neurons; test: oAβ-induced spine loss: drebrin-positive spine density in cultured hippocampal neurons; assay type: cell-based
Protocol: as §1, §2
The cultured hippocampal neurons were imaged using an oil‐based 63x objective on a Leica Stellaris 5 confocal microscope. The cell nucleus was stained with DAPI and imaged at a wavelength of 405 nm (blue channel), the dendrites stained by MAP2 were imaged at 488 nm wavelength (green channel), and the drebrin‐stained spines were imaged at a wavelength of 561 nm (red channel). Z‐stack images of neurons were acquired at a 1024 × 1024 resolution, a zoom factor of 1.0, and a z‐step size of 0.5 µm. The number of steps for every z‐stack picture of a neuron were determined by the size of the neuron in the z‐plane, to ensure that the entirety of a neuron is captured in the picture. The areas to be imaged were selected systematically, starting from the top‐left region to proceeding to the bottom‐right region of a coverslip. For imaging, preference was given to field of views containing isolated neurons versus clustered neurons.
For quantification of drebrin‐positive spines in vitro, the images were analyzed using Imaris 9.3 software. Each image consisted of one major neuron and the “filaments” option in Imaris was applied to manually trace along the dendrites of every neuron, by placing starting and seed points at the beginning and along the length of the dendrites, respectively. The largest dendrite diameter (i.e., Starting Point) was set at 9.00 µm threshold while the thinnest dendrite diameter (i.e., Seed Point) was set at 1.00 µm threshold. After manually tracing the dendrites, the spines along the dendrites were assessed using the automatic “spine detection” function in Imaris. […] The spine density (number of spines/dendrite length) was then calculated for each neuron. All image acquisition and quantification were performed in a blind manner. For in vitro quantification of dendrite degeneration, Neurolucida (MBF Biosciences) in the manual mode was used to measure the total dendritic length, numbers of dendrites, and dendritic complexity for each neuron.

[6] = young male 5xFAD, 100 mg/kg BID PO 12 weeks

For `CC(C)NC(=O)N1CC[C@H](NC2=Nc3cc(F)ccc3N(CC(F)F)c3ccc(Cl)cc32)C1` [NVS‐PAK1‐1, (S)‐3‐([2‐chloro‐5‐(2,2‐difluoroethyl)‐8‐fluoro‐5H‐dibenzo[b,e][1,4]diazepin‐11‐yl]amino)‐N‐isopropylpyrrolidine‐1‐carboxamide], the “cross-reactivity with a broad panel of proteases, receptors, and bromodomains” value [1] is listed as “no significant cross‐reactivity”, the “drebrin-stained spine density (spine counts per µm of dendritic length)” value [2] is listed as “significantly higher spine counts” and the weight loss [3] is listed as “≈ 20%”. For the same compound, the “apical dendritic spine density, somatosensory cortex” value ([4]; female 5xFAD, 100 mg/kg BID PO 12 weeks from 3 to 6 months of age, P < 0.01) was “prevented the loss”, the “basal dendritic spine density, somatosensory cortex” value ([4]; female 5xFAD, 100 mg/kg BID PO 12 weeks from 3 to 6 months of age, P < 0.05) was “prevented the loss” and the “apical spine density, somatosensory cortex” value [4, 6] was “no significant difference”. For the same compound, the “basal spine density, somatosensory cortex” value [4, 6] was “no significant difference”, the EC50 ([5]; Mus musculus, Hippocampal neuron, 24 h, oAβ 1 µM, 24 h, 14 DIV neurons, read-out: EC50, concentration at which NVS-PAK1-1 reduced oAβ-induced loss of spine density by 50%) was 2 nM and the “drebrin-stained spine density (spine counts per µm of dendritic length)” value ([5]; oAβ 1 µM + inhibitor 24 h vs oAβ alone, NVS-PAK1-1 10 nM, NVS-PAK1-C 10 nM, AZ13705339 1 nM, G5555 5 nM) was “significantly higher spine counts”.
